# Data as given in patent US20210255195A1, “HIGH PRECISION SPECTRAL FRET ASSAYS” (Regents of the University of Minnesota, priority 2017, published 2021).
# Tests used:
# [1] = target: two-color SERCA (2CS) biosensor (SERCA2a) (UniProt P16615); test: 2CS FRET biosensor in living HEK293 cells, spectral mode (spectral unmixing plate reader); type: cell-based, human; settings: for 2CS FRET hit identification: NCC screen, reproducible and dose-dependent FRET decrease
# Experimental: HEK293 cells were maintained in phenol-red-free DMEM from Gibco (Waltham, Mass.) supplemented with 2 mM GlutaMAX (Gibco), 10% fetal bovine serum (FBS) from Atlanta Biologicals (Laweranceville, Ga.), and 1 IU/mL penicillin/streptomycin (Gibco) and grown at 37° C. with 5% CO2. Stable clones expressing the FRET biosensors and corresponding donor- and acceptor-labeled control cell lines were established as described previously [3]. Briefly, cells were transfected with the recombinant DNA following established protocols lipofectaimine 3000 from Invitrogen (Carlsbad, Calif.). 48 hours post transfection the cells were placed under G418 (500 μg/mL) from Sigma (St. Louis, Mo.), antibiotic selection, and plated to allow for the growth of single colonies. Clones were isolated 2-3 weeks after transfection and antibiotic selection. […] The cell lines were expanded in T225 flasks from Corning (Corning, N.Y.), harvested by treatment with Tryple (Invitrogen), washed three times in phosphate buffer solution (PBS) with no magnesium or calcium Thermo Fischer (Waltham, Mass.)) and centrifuged at 300 g, filtered using 70 μm cell strainers (Corning), and diluted to 10^6 cells/mL using an automated countess cell counter from Invitrogen. In studies with cyan and yellow fluorescent protein biosensors, transient transfections were performed. In these studies, cells were harvested and prepared as described above, 48 hours after transfection. Cell viability was assessed using trypan blue. […]
# The observed fluorescence emission spectrum F(λ) was fitted by least-squares minimization to a linear combination of component spectra
# where D is donor, A is acceptor, C is cell autofluorescence, and W is water Raman, and a, b, c, d are the weighting (scalar) coefficients determined from the fit. The fitted spectrum for each well was determined using least squares minimization with Matlab (Mathworks) to solve for the scalar coefficients.
# For an intramolecular FRET sensor with a 1:1 ratio of donor D and acceptor A molecules, FRET efficiency (FRET) was determined from (Eq. 10).
# [2] = test system: endoplasmic reticulum calcium (D1ER sensor); test: D1ER cameleon calcium FRET sensor in HEK293 cells (ER calcium depletion), spectral mode; type: cell-based, human; settings: for T50 (rate of calcium depletion): saturating drug concentrations, Hill fit of time course
# Experimental: Investigation of a CFP and YFP FRET pair was evaluated with the well-known cameleon calcium sensor, in which the calmodulin-binding (M13) domain of myosin light chain kinase (MLCK) and calcium-binding domain of calmodulin are fused together, and located between two fluorescence proteins (eCFP/mCitrine). These calcium sensors have allowed cellular [Ca^2+] to be monitored more directly and reliably than using calcium-sensitive dyes. The endoplasmic reticulum-targeted cameleon sensor (D1ER) was selected because it is known to be sensitive to the SERCA inhibitors thapsigargin, CPA, and BHQ. Instead of detecting direct ligand binding, as in the 2CS studies reported above, the D1ER sensor can be used to monitor changes in ER calcium level. Upon SERCA inhibition, calcium is no longer pumped into the ER, leading to calcium depletion through various mechanisms including IP3-gated receptors and ryanodine receptors. D1ER senses these changes as calcium binding leads to a conformational rearrangement of the biosensors, increasing FRET between CFP and YFP. Therefore, calcium depletion due to SERCA inhibition is detected as a decrease in FRET.
# A HEK293 stable clone with constitutive expression of the D1ER cameleon calcium sensor was generated using G418 antibiotic selection. […] Cells were harvested and dispensed into 384-well plates containing the same concentrations of thapsigargin, CPA, and BHQ, as previously evaluated with 2CS (FIG. 9). D1ER FRET was monitored only in spectral mode, because the CFP donor cannot be excited effectively by the 473 nm laser used in lifetime mode. ER calcium was monitored by repeatedly scanning the 384 well plate at three-minute intervals over a 120-minute period. […]
# After resuspension and dilution in PBS, the cells were constantly and gently stirred using a magnetic stir bar at room temperature, keeping the cells in suspension and evenly distributed to avoid clumping. […] Concentration-response curves (CRC) of the FRET hits were assessed at multiple time points by repeatedly scanning the 384-well plates. […] The D1ER calcium sensor monitored changes in endoplasmic reticulum [Ca^2+] […] The methods and protocols for the D1ER cells were identical to those for 2CS, with the exception that they were evaluated only in spectral mode, and the 384-well plates containing compound CRCs were scanned every three minutes for two-hours.
# SERCA malfunction can result in decreased ATPase activity and/or calcium pumping efficiency. ER calcium content was monitored over time using the endoplasmic-localized cameleon calcium FRET sensor (D1ER). […] Briefly, D1ER FRET changes were monitored over time by repeatedly (every 3 minutes) scanning a 384-well plate containing varying concentrations of the 2CS FRET hits. D1ER cells were assessed immediately after compound incubation. […]
# cytosolic calcium = settings: literature; cited from earlier work
# [3] = Water Raman spectrum of compound-only wells (compound aggregation); type: physicochemical; settings: dose-dependent
# Text: The high sensitivity of spectral mode is shown by the fluorescence signal of the water Raman spectrum.
# [4] = target: two-color SERCA (2CS) biosensor (SERCA2a) (UniProt P16615); test: 2CS FRET biosensor in living HEK293 cells, fluorescence lifetime mode; type: cell-based, human
# Experimental: HEK293 cells were maintained in phenol-red-free DMEM from Gibco (Waltham, Mass.) supplemented with 2 mM GlutaMAX (Gibco), 10% fetal bovine serum (FBS) from Atlanta Biologicals (Laweranceville, Ga.), and 1 IU/mL penicillin/streptomycin (Gibco) and grown at 37° C. with 5% CO2. Stable clones expressing the FRET biosensors and corresponding donor- and acceptor-labeled control cell lines were established as described previously. Briefly, cells were transfected with the recombinant DNA following established protocols lipofectaimine 3000 from Invitrogen (Carlsbad, Calif.). 48 hours post transfection the cells were placed under G418 (500 μg/mL) from Sigma (St. Louis, Mo.), antibiotic selection, and plated to allow for the growth of single colonies. Clones were isolated 2-3 weeks after transfection and antibiotic selection. The stability of each clone was assessed by flow cytometry and confocal microscopy (data not shown). The cell lines were expanded in T225 flasks from Corning (Corning, N.Y.), harvested by treatment with Tryple (Invitrogen), washed three times in phosphate buffer solution (PBS) with no magnesium or calcium Thermo Fischer (Waltham, Mass.)) and centrifuged at 300 g, filtered using 70 μm cell strainers (Corning), and diluted to 10^6 cells/mL using an automated countess cell counter from Invitrogen. In studies with cyan and yellow fluorescent protein biosensors, transient transfections were performed. In these studies, cells were harvested and prepared as described above, 48 hours after transfection. Cell viability was assessed using trypan blue.
# Cells were dispensed using a Multidrop Combi liquid dispenser from Thermo Fischer (Pittsburgh, Pa.) at a density of 10^6/mL. Compounds were diluted in DMSO and dispensed either using a Mosquito liquid handeler from TTP Labtech (Melbourn, UK) or a Mantis liquid dispenser from Formulatrix (Bedford, Mass.). The known SERCA inhibitors thapsigargin (TG, Sigma), 1,4-dihydroxy-2,5-di-tert-butylbenzene (BHQ) from Tocris (Minneapolis, Minn.), and cyclopiazonic acid (CPA, Tocris) were diluted at 50× concentrations and subsequently serially diluted in 96-well mother plates prior to liquid dispensing. […]
# In its spectral unmixing plate reader (SUPR) mode, the instrument provides direct high-throughput detection of the complete fluorescence emission spectrum, (emission vs wavelength), with excitation provided by a 473 nm continuous wave laser. Spectra are recorded using a grating-based fiber optic input spectrograph equipped with linear-array CCD detector (Sony ILX511B). The recorded wavelength range in these experiments spanned the entire visible spectrum, but only the 400-700 nm range was used in the data analysis. In lifetime mode, the full nanosecond-resolved fluorescence emission waveform is acquired following excitation with a 473 nm pulsed microchip laser. […]
# Fluorescence decay waveforms for lifetime determination, were detected directly as previously described. […] A full fluorescence decay waveform was detected in response to each laser pulse over a 128 ns time window, using a photomultiplier module from Hamamatsu (Cat #H10720-210), and a proprietary transient digitizer from Fluorescence Innovations (Minneapolis, Minn.). A 488 nm long-pass filter from Semrock (Rochester, N.Y.) and 517/20 bandpass emission filter (lifetime mode), were used, ensuring that only emission from the GFP donor was detected. […]
# SERCA2a = SERCA2a (Homo sapiens, UniProt P16615); settings: binding to SERCA2a, literature; cited from earlier work
# SERCA2a, sequence (P16615 1-997 isoform P16615-2, species assumed): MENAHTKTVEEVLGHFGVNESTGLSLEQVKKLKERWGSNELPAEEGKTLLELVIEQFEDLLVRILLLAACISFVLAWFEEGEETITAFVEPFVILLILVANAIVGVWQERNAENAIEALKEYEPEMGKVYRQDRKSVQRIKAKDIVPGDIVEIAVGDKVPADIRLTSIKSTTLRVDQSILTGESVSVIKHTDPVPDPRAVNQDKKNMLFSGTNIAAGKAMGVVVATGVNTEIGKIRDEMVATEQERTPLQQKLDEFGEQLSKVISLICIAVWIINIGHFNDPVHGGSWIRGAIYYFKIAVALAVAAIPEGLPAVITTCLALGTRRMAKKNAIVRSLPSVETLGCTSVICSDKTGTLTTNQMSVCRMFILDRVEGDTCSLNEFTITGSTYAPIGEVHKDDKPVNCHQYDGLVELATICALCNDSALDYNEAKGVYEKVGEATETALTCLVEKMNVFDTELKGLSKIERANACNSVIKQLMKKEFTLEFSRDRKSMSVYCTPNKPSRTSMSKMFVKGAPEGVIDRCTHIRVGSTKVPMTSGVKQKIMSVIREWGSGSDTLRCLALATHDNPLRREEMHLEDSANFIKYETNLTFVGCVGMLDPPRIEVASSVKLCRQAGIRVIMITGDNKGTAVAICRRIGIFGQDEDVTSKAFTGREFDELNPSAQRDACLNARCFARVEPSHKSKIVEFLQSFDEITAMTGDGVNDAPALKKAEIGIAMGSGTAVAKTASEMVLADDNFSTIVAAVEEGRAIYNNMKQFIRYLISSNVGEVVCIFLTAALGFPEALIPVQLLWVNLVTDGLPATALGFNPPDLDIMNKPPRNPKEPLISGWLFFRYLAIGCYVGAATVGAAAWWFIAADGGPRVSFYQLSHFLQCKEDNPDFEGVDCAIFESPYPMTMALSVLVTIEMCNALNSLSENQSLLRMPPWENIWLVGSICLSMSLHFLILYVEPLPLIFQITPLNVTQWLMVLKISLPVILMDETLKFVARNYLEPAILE
compound,measurement,setting,value
c1ccc(-c2ccc(C(c3ccccc3)n3ccnc3)cc2)cc1 (stereo not shown) [bifonazole],2CS FRET hit identification,[1],hits
Clc1ccccc1C(c1ccccc1)(c1ccccc1)n1ccnc1 [clotrimazole],2CS FRET hit identification,[1],hit
"CC(C)(C)c1cc(O)c(C(C)(C)C)cc1O [BHQ, 1,4-dihydroxy-2,5-di-tert-butylbenzene]",T50 (rate of calcium depletion),[2],17.4 min
Oc1cc(Cl)ccc1Oc1ccc(Cl)cc1Cl [triclosan],cytosolic calcium,cytosolic calcium,increase cytosolic calcium
Clc1ccc(COC(Cn2ccnc2)c2ccc(Cl)cc2Cl)c(Cl)c1 (stereo not shown) [miconazole],2CS FRET hit identification,[1],hits
same,"Raman scattering, compound aggregation",[3],decreases inelastic light scattering (Raman band)
same,ER calcium depletion,[2]; over 120 minutes,largest amount of ER calcium depletion
C/C=C(/C)C(=O)O[C@H]1C(C)=C2[C@H]([C@@H]1OC(=O)CCCCCCC)[C@@](C)(OC(C)=O)C[C@H](OC(=O)CCC)[C@@]1(O)[C@H]2OC(=O)[C@@]1(C)O [thapsigargin],reduction in FRET,"[1]; 50 nM thapsigargin, spectral mode, average of 32 wells",8%
same,reduction in FRET efficiency,"[4]; 50 nM thapsigargin, lifetime mode, versus donor-only control",6%
same,2CS structural equilibrium between open and closed states,[4]; global lifetime analysis,shifts this equilibrium substantially toward the open state
same,2CS structural equilibrium between open and closed states,"[4]; global lifetime analysis, listed as Thapsigargin",greatly increasing the population of the more open and disordered structural state
same,EC50,"[4]; read-out: EC50 of closed state mole fraction, global lifetime analysis, two-state model",2.2 nM
same,increase in the GFP lifetime,"[4]; saturating concentration, 50 nM",200 picosecond
same,Ki,SERCA2a,2 nM
same,EC50,"[2]; Homo sapiens, HEK293, 2 h, ER calcium depletion at 120 min time point, read-out: equilibrium constant of sigmoidal D1ER FRET response",1.97 nM
same,T50 (rate of calcium depletion),[2],9.5 min
